Literature values, collected in patent publication US20250221905A1, “HAIR CARE COMPOSITION” (Conopco, Inc., d/b/a UNILEVER, priority 2022, published 2025).

Columns and labels:
[1] = system: 5α-reductase; conditions: background statement
[2] = supplier Croda

| sebum excess action modeled by 5α-reductase evaluation [1] | HLB value [2] | Compound |
| --- | --- | --- |
| reduce sebum excess action | – | CCCCCCCC(=O)NCC(=O)O [Capryloyl glycine, N-(1-oxooctyl) glycine] |
| – | 15.5 | Oleth-20 [Brij O20] |
| – | 11 | Polysorbate 85 [Tween 85] |
| – | 4.9 | Steareth-2 [Brij S2] |
